Results from patent US5616557A, “Process for selectively inhibiting activity of endotoxin” (Wako Pure Chemical Industries, Ltd., priority 1993, dated 1997).

System: E. coli 0128:B12 LPS
Experiment: Limulus test of ET spiked plasma, Example 4
Type: biochemical
Conditions: 0.009 w/v % of Px B alone; ET 2 ng/ml, 80° C. 5 minutes (FIG. 4)
Procedure: To 0.1 ml of the LAL solution was added 0.1 ml of the aforesaid diluted plasma, and stirred, after which a time required for reducing the transmittance of the resulting mixture by 5% (hereinafter abbreviated as "Tg") was measured while maintaining the temperature at 37° C. The ET concentration in the diluted plasma was determined on the basis of the thus obtained Tg value by use of a calibration curve showing the relationship between ET concentration and Tg which had been previously obtained by carrying out the same measurement as described above except for using ET solutions having various known concentrations in place of the samples.
To 1.3 ml of normal human heparinized plasma was added 13 μl of ET solution having a predetermined concentration, and 100 μl of the resulting ET spiked plasma was diluted 10 times with 900 μl of distilled water for injection, each of aqueous surfactant solutions having predetermined concentrations, each of aqueous Px B solutions having predetermined concentrations, or each of aqueous Px B solutions having predetermined concentrations and containing 0.1 w/v % or 0.2 w/v % of the surfactant (polyoxyethylene glycol p-t-octylphenyl ether), respectively. […] The ET concentration in the diluted plasma thus obtained was measured in the same manner as in Example 1.

Substance: polymyxin B [Px B]
- ET activity in plasma: completely inhibited
